Test results: US20090239936A1, “Prophylactic and Therapeutic Agent for Cancer” (priority 2006, published 2009)

Assays:
P-glycoprotein = P-glycoprotein expression level by western blotting after drug addition; type: cell-based, human
Experimental: In […] HCT-15 cells (obtained from Developmental Therapeutics Program, National Cancer Institute, National Institutes of Health, Bethesda, Md., USA) and […] SW620 cells (obtained from Developmental Therapeutics Program, National Cancer Institute, National Institutes of Health, Bethesda, Md., USA), which expressed P-glycoprotein at a high level, screening of drugs that reduced the expression level of P-glycoprotein was performed by western blotting. […]
Inhibitory effects of MEK inhibitor U0126 on the expression level of P-glycoprotein in HCT-15 and SW620 cells prepared by the same procedure as described in PREPARATION EXAMPLE 1 in which endogenous P-glycoprotein was expressed and in the MCF-7/MDR and MDA-MB-231/MDR cells in which exogenous P-glycoprotein was expressed were monitored with passage of time in a manner similar to EXAMPLE 1. […]
Using MEK inhibitor PD098059 (purchased from Cell Signaling Technology; see English, J. et al. (1999) Exp. Cell Res. 253, 255), which has an action mechanism different from U0126, inhibitory effects of MEK inhibitor PD098059 on the expression level of P-glycoprotein in the HCT-15 and SW620 cells in which endogenous P-glycoprotein was expressed and in the MCF-7/MDR and MDA-MB-231/MDR cells in which exogenous P-glycoprotein was expressed were monitored with passage of time in a manner similar to EXAMPLE 1. […]

MDR1 mRNA = settings: U0126 10 μM
BCRP = settings: U0126 10 μM; human colon cancer (HT-29, KM12), non-small-cell lung cancer (NCI-H460, A549) and ovarian cancer (OVACAR-5) cells; in 12 hours later (FIG. 5)
Experimental: After incubation for 8 hours or 12 hours, each drug was added to the cells followed by further incubation. Thereafter, the BCRP expression level was assessed by western blotting using an anti-BCRP antibody (manufactured by Chemicon International Inc., trade name: BXP-21). The protein of 10 μg each was electrophoresed in each lane. The protein was quantified by Bradford assay (Bio-Rad protein assay dye reagent). More specifically, the incubated cells were recovered with a cell scraper and centrifuged (5,000 rpm×3 mins.) to pellet down. […] While vortexing every 5 minutes, the cell membrane and cytoplasmic fractions were solubilized on ice for 30 minutes in total. Using the supernatant after centrifugation (15,000 rpm×15 mins.) as a sample, the protein was quantified.

HCT-15 cells = assay: cell growth inhibition test, HCT-15; type: cell-based; settings: Homo sapiens, 120 h, read-out: IC50 concentration (50% growth inhibitory concentration), 5 days
Experimental: (§1) The cells were plated in 12-well plates (manufactured by IWAKI GLASS Co. […] Subsequently, the drug diluted in the medium to different concentrations was added in a volume of 1 ml per well. The plates were placed in a 5% carbon dioxide gas incubator and incubation was performed at 37° C. for 5 days. Five days after, the cells were rinsed with phosphate buffer and detached with 0.5 ml of trypsin-EDTA. The cells were then suspended in 1 ml of the medium. The cell suspension in each well was added into a beaker containing 9 ml of […] diluent (TOA Medical Electronics Co., Ltd.), and the number of cells was counted with a Sysmex CDA-500 automated cell counter (TOA Medical Electronics Co., Ltd.).

SW620-14 cells = assay: cell growth inhibition test, SW620-14; type: cell-based; settings: Homo sapiens, 120 h, read-out: IC50 concentration (50% growth inhibitory concentration), 5 days
Experimental: as §1

MCF-7/MDR cells = assay: cell growth inhibition test, MCF-7/MDR; type: cell-based; settings: Homo sapiens, MCF7, 120 h, read-out: IC50 concentration (50% growth inhibitory concentration), 5 days
Experimental: as §1

MDA-MB-231/MDR cells = assay: cell growth inhibition test, MDA-MB-231/MDR; type: cell-based; settings: Homo sapiens, 120 h, read-out: IC50 concentration (50% growth inhibitory concentration), 5 days
Experimental: as §1

For `O=c1cc(N2CCOCC2)oc2c(-c3ccccc3)cccc12` [LY294002, 2-(4-morpholinyl)-8-phenyl-1(4H)-benzopyran-4-one], the P-glycoprotein expression level (P-glycoprotein; HCT-15 cells and SW620 cells, endogenous P-glycoprotein, western blotting (FIG. 1)) was “not down-regulated”.

In the case of `N#CC(=C(N)Sc1ccccc1N)C(C#N)=C(N)Sc1ccccc1N` [U0126, 1,4-diamino-2,3-dicyano-1,4-bis[2-aminophenylthio]butadiene], the “expression level of P-glycoprotein” value (P-glycoprotein; U0126 10 μM, MCF-7/MDR and MDA-MB-231/MDR cells (exogenous P-glycoprotein), in 8 to 12 hours (FIG. 2)) is reported as ≤ 10 % of control, the “expression level of MDR1 mRNA” value (MDR1 mRNA) is reported as “Any change was not observed” and the “expression level of BCRP” value (BCRP) is reported as “reduced”.

`CC(=O)O[C@H]1C(=O)[C@@]2(C)[C@H]([C@H](OC(=O)c3ccccc3)[C@]3(O)C[C@H](OC(=O)[C@H](O)[C@@H](NC(=O)c4ccccc4)c4ccccc4)C(C)=C1C3(C)C)[C@]1(OC(C)=O)CO[C@@H]1C[C@@H]2O` [paclitaxel] was tested, and the IC50 (HCT-15 cells) was 100 nM, the IC50 (SW620-14 cells) was 5 nM and the IC50 (MCF-7/MDR cells) was 4 nM. For the same compound, the IC50 (MDA-MB-231/MDR cells) was 800 nM.
